Source: patent US20100069498A1 (ESSENTYS AB, priority 2003, published 2010)
Values joined by “and” are separate entries in the source; they are usually repeats but may differ in a detail not shown here. Equal entries are not always repeated.

How the values were obtained:
[1] = Description: Female piglets (n=9) were purchased from the Texas Department of Criminal Justice, Huntsville, Tex.
Pigs (14 d of age) arrived at the Children's Nutrition Research Center and for a 7-day adjustment period were fed a liquid milk replacer diet (Litter Life, Merrick, Middleton, Wis.) at a rate of 50 g/(kg·d).
Briefly, under isoflurane anesthesia and aseptic conditions, the piglets were implanted with a polyethylene catheter (o.d., 1.27 mm, Becton Dickinson, Sparks, Md.) in the common portal vein, and silastic catheters (o.d., 1.78 mm) in an external jugular vein and a carotid artery.
An ultrasonic flow probe (8 to 10 mm i.d., Transonic, Ithaca, N.Y.) was placed around the portal vein.
A silicone catheter (o.d., 2.17 mm, Baxter Healthcare, McGaw Park, Ill.) was implanted into the lumen of the duodenum. The catheters were filled with sterile saline containing heparin (2.5×10^4 U/L), and exteriorized on either the left flank (portal and duodenal catheters, flow probe leads) or between the scapulae (jugular and carotid catheters).
For plasma amino acid analysis, a 0.2 mL aliquot of plasma was mixed with an equal volume of an aqueous solution of methionine sulfone (4 mmol/L) and centrifuged at 10,000×g for 120 min through a 10-kDa cutoff filter.
A 50 μL aliquot of the filtrate was dried and the amino acids were analyzed by reverse-phase HPLC of their phenylisothiocyanate derivatives (Pico Tag, Waters, Woburn, Mass.).
Plasma ammonia was determined using a spectrophotometric assay kit (171-C, Sigma-Aldrich, St. Louis, Mo.).
Plasma glucose was determined using a spectrophotometric assay kit (315-100; Sigma-Aldrich, St. Louis, Mo.).
Net portal balance of metabolites [μmol/(kg·h)] was calculated as follows:
(Conc.PORT−Conc.ART)×PBF (1)
when Conc. is the concentration in the blood (μmol/L), PORT and ART refer to portal and arterial blood and PBF is portal blood flow [L/(kg·h)].
Piglets were deprived of food for 15 h before initiation of the experiment.
On the day of the experiment, at time −1 h, a primed (7.75 mL/kg; 25% wt/wt aqueous solution; oral), continuous duodenal infusion of milk replacer [Litter Life, Merrick, Middleton, Wis.; 7.75 mL/(kg·h)] prepared as a 25% (wt/wt) aqueous solution which provided ˜920 kJ and 12.5 g protein/(kg·d).

[2] = Mean luminal disappearance of a duodenal AKG bolus; format: in vivo, pigs; conditions: duodenal bolus 1040 μmol/kg
Experimental: After 1 h, pigs were sacrificed.
The small intestine was carefully clamped at the proximal duodenum and distal ileum, removed and flushed with 2×50 mL of saline to wash the intestine.

Remark: listed apart in the source
[3] = AKG infusion 930 μmol/(kg·h), P<0.01
[4] = AKG treatment, P<0.05, data not shown
[5] = piglets, duodenal infusion 930 μmol/(kg·h) AKG (3.75% of diet dry matter), ± SEM
[6] = pigs, duodenal infusion 930 μmol/(kg·h) AKG, n = 5
[7] = pigs, duodenal infusion 930 μmol/(kg·h) AKG, n = 5, LSMean ± SEM

O=C(O)CCC(=O)C(=O)O [AKG, alpha-ketoglutaric acid]
Effect on net portal appearance of glutamate ([1]; AKG infusion): not affected | Effect on net portal appearance of glutamine ([1]; AKG infusion): not affected | Effect on net portal balance of AKG vs control ([1]; AKG infusion 930 μmol/(kg·h)): increased | Effect on arterial AKG concentration vs control [1, 3]: increased | Effect on portal AKG concentration vs control [1, 3]: increased | Increase in proline net portal balance ([1]; AKG treated pigs vs control): 138.1 µmol/kg/h | Effect on ammonia net portal balance vs control ([1]; AKG treatment, duodenal infusion): not affected | Effect on net portal balance of glucose vs control ([1]; AKG treatment, duodenal infusion, P<0.05): decreased | Effect on portal mass balance of leucine vs control ([1]; AKG treatment, P<0.05): increased | Effect on portal mass balance of lysine vs control ([1]; AKG treatment, P<0.05): increased | Effect on portal mass balance of proline vs control ([1]; AKG treatment, P<0.05): increased | Effect on arterial concentration of proline vs control [1, 4]: increased | Effect on portal concentration of proline vs control [1, 4]: increased | Effect on portal mass balance of isoleucine vs control ([1]; AKG treatment, P<0.10): tended (P<0.10) to increase | Effect on portal leucine concentration vs control ([1]; AKG treatment, data not shown): tended (P<0.01) to be increased | AKG unaccounted for in the portal balance ([1]; duodenal infusion 930 μmol/(kg·h) AKG): over 800 μmol/(kg·h) | AKG net portal balance, % of infused ([1]; piglets, duodenal infusion 930 μmol/(kg·h) AKG): 10.23 % of infused and 10 % of infused and 10.23 ± 0.57 % of infused | AKG net portal balance [1, 5]: 95 µmol/kg/h and 95.2 ± 12 µmol/kg/h | Ammonia net portal balance [1, 5]: 561.1 ± 53 µmol/kg/h | Arterial AKG [1, 5]: 27.4 ± 3.6 µmol/L | Glucose net portal balance [1, 5]: 203.9 ± 69 mg/(kg · h) | Portal AKG [1, 5]: 64.6 ± 5.9 µmol/L | Net portal balance of Alanine, % of Intake [1, 6]: 189.0 % of Intake | Net portal balance of Arginine, % of Intake [1, 6]: 98.3 % of Intake | Net portal balance of Aspartate, % of Intake [1, 6]: 9.6 % of Intake | Net portal balance of Glutamate, % of Intake [1, 6]: 18.6 % of Intake | Net portal balance of Glycine, % of Intake [1, 6]: 116.0 % of Intake | Net portal balance of Histidine, % of Intake [1, 6]: 71.4 % of Intake | Net portal balance of Isoleucine, % of Intake [1, 6]: 140.0 % of Intake | Net portal balance of Leucine, % of Intake [1, 6]: 113.4 % of Intake | Net portal balance of Lysine, % of Intake [1, 6]: 98.8 % of Intake | Net portal balance of Phenylalanine, % of Intake [1, 6]: 98.7 % of Intake | Net portal balance of Proline, % of Intake [1, 6]: 114.5 % of Intake | Net portal balance of Serine, % of Intake [1, 6]: 108.3 % of Intake | Net portal balance of Threonine, % of Intake [1, 6]: 75.7 % of Intake | Net portal balance of Tyrosine, % of Intake [1, 6]: 135.9 % of Intake | Net portal balance of Valine, % of Intake [1, 6]: 108.9 % of Intake | Net portal balance of Alanine [1, 7]: 557.8 ± 48 µmol/kg/h | Net portal balance of Arginine [1, 7]: 109.0 ± 19 µmol/kg/h | Net portal balance of Asparagine [1, 7]: 185.6 ± 18 µmol/kg/h | Net portal balance of Aspartate [1, 7]: 29.7 ± 6.0 µmol/kg/h | Net portal balance of Glutamate [1, 7]: 80.1 ± 17 µmol/kg/h | Net portal balance of Glutamine [1, 7]: 25.5 ± 45 µmol/kg/h | Net portal balance of Glycine [1, 7]: 177.2 ± 20 µmol/kg/h | Net portal balance of Histidine [1, 7]: 45.9 ± 3.8 µmol/kg/h | Net portal balance of Phenylalanine [1, 7]: 95.2 ± 11 µmol/kg/h | Net portal balance of Serine [1, 7]: 244.7 ± 64 µmol/kg/h | Net portal balance of Threonine [1, 7]: 210.9 ± 18 µmol/kg/h | Net portal balance of Tryptophan [1, 7]: 47.2 ± 4.3 µmol/kg/h | Net portal balance of Tyrosine [1, 7]: 115.8 ± 17 µmol/kg/h | Net portal balance of Valine [1, 7]: 279.3 ± 32 µmol/kg/h | Share of the AKG bolus disappeared from the lumen of the duodenum ([2]; 1 h): approximately 64% | Luminal disappearance as share of the 1040 μmol/kg of infused AKG ([2]; pigs, one hour): 63.8 | Effect on production of CO2 in the whole body (AKG infusion): did not increase | Effect on NOLD (non-oxidative leucine disposal) vs control (AKG treatment, FIG. 1): not affected | Effect on Ra (leucine appearance rate) vs control (AKG treatment, FIG. 1): not affected | Effect on whole-body leucine oxidation vs control (AKG treatment, FIG. 1): not affected
